Source: article PMC8589421, “Impact of Type II LRRK2 inhibitors on signaling and mitophagy” (Biochemical Journal, 2021)
Where two headings read alike, the source gives them in different places.

Legend:
LRRK2 at Ser935 = assay: LRRK2 Ser935 phospho-immunoblot in wild-type MEFs; type: cell-based, mouse; conditions: MEFs, 2 h dose response
Method: (§1) Wild-type and homozygous LRRK2 [R1441C] […] All cells were grown at 37°C, 5% (by vol) CO2 in a humidified atmosphere and regularly tested for mycoplasma contamination.
(§2) Inhibitors were dissolved in dimethyl sulfoxide (DMSO) (Sigma, #D2650). The inhibitors were diluted 1000× into cell medium. The equivalent volume of DMSO was added to the minus inhibitor controls. Experiments were performed in six-well plates, 10 cm dishes or 15 cm dishes depending on the amount of cell extract required.
(§3) Lysates were incubated on ice for 30 min and clarified by centrifugation at 20 800×g at 4°C for 20 min. Supernatants were quantified by Bradford assay (Bio-Rad Protein Assay Dye Reagent Concentrate #5000006) and samples prepared in 1× lithium dodecyl sulfate sample buffer final concentration (NuPage LDS Sample buffer 4× Invitrogen, #NP0008). When not deployed immediately, lysates were snap-frozen in liquid nitrogen and stored at −80°C until use.
(§4) Cell extracts were mixed with a quarter of a volume of NuPage LDS Sample buffer 4× Invitrogen and heated at 95°C for 5 min. […] At the end of electrophoresis, proteins were electrophoretically transferred onto the nitrocellulose membrane (GE Healthcare, Amersham Protran Supported 0.45 µm NC) at 100 V for 90 min on ice in the transfer buffer (48 mM Tris–HCl and 39 mM glycine supplemented with 20% methanol). Transferred membrane was blocked with 5% (w/v) skim milk powder dissolved in TBS-T [20 mM Tris–HCl, pH 7.5, 150 mM NaCl and 0.1% (v/v) Tween 20] at room temperature for 1 h. The membrane was typically cropped into three pieces, namely the ‘top piece’ (from the top of the membrane to 75 kDa), the ‘middle piece’ (between 75 and 30 kDa) and the ‘bottom piece’ (from 30 kDa to the bottom of the membrane). All primary antibodies were used at 1 μg/ml final concentration and incubated in TBS-T containing 5% (by mass) bovine serum albumin with exception of α-tubulin and GAPDH antibodies that were diluted 1 : 5000 and 1 : 2000, respectively. The top piece was incubated with the indicated rabbit anti-LRRK2 phosphorylation site antibody multiplexed with mouse anti-LRRK2 C-terminus total antibody. The middle piece was incubated with mouse anti-GAPDH or anti-α-tubulin antibody. The bottom pieces were incubated with indicated total and phospho-Rab antibodies. Membranes were incubated in primary antibody overnight at 4°C. Prior to secondary antibody incubation, membranes were washed three times with TBS-T for 10 min each. […] Membranes were washed with TBS-T for three times with a 10 min incubation for each wash. Protein bands were acquired via near infrared fluorescent detection using the Odyssey CLx imaging system and quantified using the Image Studio software.

[1] = tested on: Rab10 phosphorylation, LRRK2[A2016T]; assay: Rab10 Thr73 phospho-immunoblot in inhibitor resistant LRRK2[A2016T] knock-in MEFs; type: cell-based, mouse; conditions: 2 h, up to 3 µM
Method: (§5) Wild-type and homozygous LRRK2 [R1441C] (Jax, stock number: 009346), LRRK2[G2019S] Taconic, (model 13940) and LRRK2 [A2016T] (Jax, stock number: 021828)[7] knock-in MEF cells were isolated from littermate-matched mouse embryos on a C57BL/6J background at day E12.5 as described previously. MEFs were grown in Dulbecco's modified Eagle medium (DMEM GIBCO, #11960-085) containing 10% (by vol) fetal bovine serum (FBS), 2 mM L-glutamine, 100 U/ml penicillin, and […] streptomycin supplemented with non-essential amino acids and 1 mM sodium pyruvate. Human embryonic kidney 293 (HEK293) (#ATCC CRL-1573) and HeLa (#ATCC CCL-2) cells were purchased from American Tissue Culture Collection (ATCC) and cultured in DMEM containing 10% (by vol) FBS, 2 mM L-glutamine, 100 U/ml penicillin, and […] streptomycin. All cells were grown at 37°C, 5% (by vol) CO2 in a humidified atmosphere and regularly tested for mycoplasma contamination.
as §2
(§6) Cells were lysed in an ice-cold lysis buffer containing 50 mM Tris–HCl, pH 7.4, 1% (by vol) Triton X-100, 10% (by vol) glycerol, 150 mM NaCl, 1 mM sodium orthovanadate, 50 mM NaF, 10 mM 2-glycerophosphate, 5 mM sodium pyrophosphate, 1 µg/ml microcystin-LR, and cOmplete EDTA-free protease inhibitor cocktail (Roche, #11836170001). Lysates were incubated on ice for 30 min and clarified by centrifugation at 20 800×g at 4°C for 20 min. Supernatants were quantified by Bradford assay (Bio-Rad Protein Assay Dye Reagent Concentrate #5000006) and samples prepared in 1× lithium dodecyl sulfate sample buffer final concentration (NuPage LDS Sample buffer 4× Invitrogen, #NP0008). When not deployed immediately, lysates were snap-frozen in liquid nitrogen and stored at −80°C until use. […]

[2] = tested on: Dundee panel of 140 protein kinases; assay: Kinase profiling; type: biochemical
Excerpt: […] Results for each kinase are presented as the mean kinase activity ±S.D. for an assay undertaken in duplicate relative to a control kinase assay in which the inhibitor was omitted. Abbreviations and assay conditions used for each kinase are available (http://www.kinase-screen.mrc.ac.uk/services/premier-screen).

[3] = tested on: LRRK2 mediated phosphorylation of Rab10 at Thr73; assay: Rab10 Thr73 phospho-immunoblot in wild-type MEFs; type: cell-based, mouse; conditions: Mus musculus, 2 h
Method: as §1, §2, §3, §4

[4] = tested on: mouse embryonic fibroblast cells (MEFs); assay: Cell morphology and attachment of MEFs; type: cell-based
[5] = tested on: Rab10 pThr73, LRRK2 [R1441C]; assay: Rab10 Thr73 phospho-immunoblot in LRRK2[R1441C] knock-in MEFs; type: cell-based, mouse; conditions: Mus musculus, 2 h, read-out: LRRK2 [R1441C] Rab10 pThr73 IC50
Method: as §5, §2, §6

[6] = tested on: Rab10 pThr73, LRRK2 [G2019S]; assay: Rab10 Thr73 phospho-immunoblot in LRRK2[G2019S] knock-in MEFs; type: cell-based, mouse; conditions: Mus musculus, 2 h, read-out: LRRK2 [G2019S] Rab10 pThr73 IC50
Method: as §5, §2, §6

[7] = tested on: LRRK2 Ser935 phosphorylation, LRRK2[R1441C]; assay: LRRK2 Ser935 phospho-immunoblot in LRRK2[R1441C] knock-in MEFs; type: cell-based, mouse; conditions: dose and time dependent
Method: as §5, §2
Cells were lysed in an ice-cold lysis buffer containing 50 mM Tris–HCl, pH 7.4, 1% (by vol) Triton X-100, 10% (by vol) glycerol, 150 mM NaCl, 1 mM sodium orthovanadate, 50 mM NaF, 10 mM 2-glycerophosphate, 5 mM sodium pyrophosphate, 1 µg/ml microcystin-LR, and cOmplete EDTA-free protease inhibitor cocktail (Roche, #11836170001). Lysates were incubated on ice for 30 min and clarified by centrifugation at 20 800×g at 4°C for 20 min. Supernatants were quantified by Bradford assay (Bio-Rad Protein Assay Dye Reagent Concentrate #5000006) and samples prepared in 1× lithium dodecyl sulfate sample buffer final concentration (NuPage LDS Sample buffer 4× Invitrogen, #NP0008). When not deployed immediately, lysates were snap-frozen in liquid nitrogen and stored at −80°C until use.
Cell extracts were mixed with a quarter of a volume of NuPage LDS Sample buffer 4× Invitrogen and heated at 95°C for 5 min. […] At the end of electrophoresis, proteins were electrophoretically transferred onto the nitrocellulose membrane (GE Healthcare, Amersham Protran Supported 0.45 µm NC) at 100 V for 90 min on ice in the transfer buffer (48 mM Tris–HCl and 39 mM glycine supplemented with 20% methanol). Transferred membrane was blocked with 5% (w/v) skim milk powder dissolved in TBS-T [20 mM Tris–HCl, pH 7.5, 150 mM NaCl and 0.1% (v/v) Tween 20] at room temperature for 1 h. […]

SMILES	effect on LRRK2 Ser935 phosphorylation (LRRK2 at Ser935)	effect of A2016T mutation on inhibition of Rab10 phosphorylation [1]	number of the 140 kinases assayed suppressed by over 80% ([2]; 0.1 μM inhibitor)	number of the 140 kinases assayed suppressed by over 80% ([2]; 1 μM inhibitor)	inhibition at 10 µM ([3]; wild-type MEFs, 10 μM) [%]	concentration that impacted cell morphology and attachment [4]	IC50 ([3]; read-out: LRRK2 WT Rab10 pThr73 IC50, wild type MEFs littermate matched to LRRK2[G2019S], 2 h, panel (B)) [nM]	IC50 ([3]; read-out: LRRK2 WT Rab10 pThr73 IC50, wild type MEFs littermate matched to LRRK2[R1441C], 2 h, panel (A)) [nM]	IC50 [5] [nM]	IC50 [6] [nM]	effect on Ser935 phosphorylation in LRRK2[R1441C] knock-in cells [7]
C[C@@H]1CN(c2cc(-c3n[nH]c4ccc(OC5(C)CC5)cc34)ncn2)C[C@H](C)O1 [MLi-2]	complete dephosphorylation	markedly suppressed inhibition of Rab10 phosphorylation									
Cc1ccc(C(=O)Nc2ccc(CN3CCN(C)CC3)c(C(F)(F)F)c2)cc1C#Cc1cnc2cccnn12 [Ponatinib]	without affecting Ser935 phosphorylation		14	20	~50	above 10 μM					
CNC(=O)c1cc(Oc2ccc(NC(=O)Nc3cc(C(C)(C)C)nn3-c3ccc4ncccc4c3)c(F)c2)ccn1 [Rebastinib]	did not induce dephosphorylation of Ser935	markedly blocked		18			478	539	1310	1070	rescue Ser935 phosphorylation
